Experimental findings from publication PMC9696710 (International Journal of Molecular Sciences, 2022) are described below.

Common to all, as to test: stopped-flow CO2 hydrase assay
Assay type in all cases: biochemical

In one assay the target is T1, hCA VII (Homo sapiens, UniProt P43166).
T1 construct: gene CA7; recombinant, obtained in-house; cytosolic alpha-CA
To be noted: read-out: KI (nM) ^a / hCA VII (α-CA). From the text:
stopped-flow CO2 hydrase assay on hCA VII

In the next assay the target is T2, MgCA (Malassezia globosa, UniProt A8Q1N3).
T2 construct: gene MGL_1814; recombinant, obtained in-house; beta-CA
T2 sequence (A8Q1N3 1-241): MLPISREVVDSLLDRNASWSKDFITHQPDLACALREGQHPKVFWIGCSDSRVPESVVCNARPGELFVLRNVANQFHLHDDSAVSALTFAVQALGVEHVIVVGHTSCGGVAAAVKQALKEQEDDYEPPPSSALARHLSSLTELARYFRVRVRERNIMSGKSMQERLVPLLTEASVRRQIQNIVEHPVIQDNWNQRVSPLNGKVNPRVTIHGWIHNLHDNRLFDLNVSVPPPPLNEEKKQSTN
To be noted: […] TRIS pH […] Na2SO4, […] h preincubation at room temperature; read-out: KI (nM) ^a / MgCA (β-CA).

Another assay has as its target T3, hCA II (Homo sapiens, UniProt P00918).
T3 construct: gene CA2; recombinant, obtained in-house; cytosolic alpha-CA
To be noted: read-out: KI (nM) ^a / hCA II (α-CA). From the text:
stopped-flow CO2 hydrase assay on hCA II

Another assay deals with T4, hCA I (Homo sapiens, UniProt P00915).
T4 construct: gene CA1; recombinant, obtained in-house; cytosolic alpha-CA
T4 sequence (P00915 2-261): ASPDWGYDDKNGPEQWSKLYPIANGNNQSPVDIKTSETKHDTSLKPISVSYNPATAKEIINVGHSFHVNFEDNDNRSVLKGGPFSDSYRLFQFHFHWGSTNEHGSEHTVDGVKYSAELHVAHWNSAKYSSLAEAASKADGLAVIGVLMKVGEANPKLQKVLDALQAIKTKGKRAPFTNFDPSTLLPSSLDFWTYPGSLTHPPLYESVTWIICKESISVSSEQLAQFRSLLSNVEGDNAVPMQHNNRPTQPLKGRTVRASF
To be noted: read-out: KI (nM) ^a / hCA I (α-CA). From the text: stopped-flow CO2 hydrase assay on hCA I

For the next assay, the target named is T5, CgNce103 (Nakaseomyces glabratus, UniProt Q6FTL6).
T5 construct: gene NCE103; recombinant, obtained in-house; beta-CA
T5 sequence (Q6FTL6 1-219): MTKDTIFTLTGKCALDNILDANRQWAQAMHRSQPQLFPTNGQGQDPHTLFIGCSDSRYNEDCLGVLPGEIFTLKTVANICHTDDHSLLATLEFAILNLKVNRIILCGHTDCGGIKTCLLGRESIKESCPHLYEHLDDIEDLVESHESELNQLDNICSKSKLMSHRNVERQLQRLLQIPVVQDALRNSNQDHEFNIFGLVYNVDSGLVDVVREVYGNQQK
To be noted: read-out: KI (nM) ^a / CgNce103 (β-CA).

Structures are written as SMILES. A value given as a limit tells only on which side of the number the result lay.

T1 sequence (P43166 whole entry): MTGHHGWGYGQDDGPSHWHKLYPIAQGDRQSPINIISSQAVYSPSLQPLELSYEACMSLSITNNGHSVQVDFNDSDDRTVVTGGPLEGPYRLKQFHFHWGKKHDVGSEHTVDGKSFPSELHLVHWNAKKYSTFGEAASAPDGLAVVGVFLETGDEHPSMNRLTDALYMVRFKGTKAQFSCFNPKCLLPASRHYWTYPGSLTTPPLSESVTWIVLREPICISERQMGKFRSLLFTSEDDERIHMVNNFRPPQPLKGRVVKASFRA

Regarding `CCN1C(=O)CN(c2ccc(S(N)(=O)=O)cc2)C1=O` [8a, 4-(3-Ethyl-2,4-dioxoimidazolidin-1-yl)benzenesulfonamide], the Ki at hCA VII is 30.8 nM; on MgCA, 68100 nM; at hCA II, 25.8 nM; on hCA I it was 262 nM; on CgNce103, 46 nM.

`NS(=O)(=O)c1ccc(N2CC(=O)N(Cc3ccccc3)C2=O)cc1` [8d, 4-(3-Benzyl-2,4-dioxoimidazolidin-1-yl)benzenesulfonamide]: the Ki at hCA VII is 5.3 nM; at MgCA, 64600 nM; on hCA II it was 8.7 nM; at hCA I it was 837 nM; at CgNce103 it was 20.9 nM.

With `N#Cc1ccc(CN2C(=O)CN(c3ccc(S(N)(=O)=O)cc3)C2=O)cc1` [8g, 4-(3-(4-Cyanobenzyl)-2,4-dioxoimidazolidin-1-yl)benzenesulfonamide], the Ki was 12 nM on hCA VII; greater than 100000 nM on MgCA; 7.2 nM on hCA II; 570 nM at hCA I; 38.4 nM on CgNce103.

For `Cc1cccc(CN2C(=O)CN(c3ccc(S(N)(=O)=O)cc3)C2=O)c1` [8k, 4-(3-(3-Methylbenzyl)-2,4-dioxoimidazolidin-1-yl)benzenesulfonamide], the Ki at hCA VII was 18.8 nM; at MgCA, greater than 100000 nM; on hCA II, 58.3 nM; at hCA I, 1080 nM; on CgNce103, 8.4 nM.

As for `CCCCCCCN1C(=O)CN(c2ccc(S(N)(=O)=O)cc2)C1=O` [8b, 4-(3-Heptyl-2,4-dioxoimidazolidin-1-yl)benzenesulfonamide], the Ki came to 187 nM on hCA VII; 95700 nM on MgCA; 56.4 nM on hCA II; 747 nM on hCA I; 83.7 nM at CgNce103.

Regarding `NS(=O)(=O)c1ccc(N2CC(=O)N(Cc3ccc(Cl)cc3)C2=O)cc1` [8f, 4-(3-(4-Chlorobenzyl)-2,4-dioxoimidazolidin-1-yl)benzenesulfonamide], the Ki was found to be 15.3 nM on hCA VII; 41500 nM at MgCA; 62.2 nM on hCA II; 8790 nM at hCA I; 44.9 nM on CgNce103.

Consider `NS(=O)(=O)c1ccc(N2CC(=O)NC2=O)cc1` [compound 6, 4-(2,4-Dioxoimidazolidin-1-yl)benzenesulfonamide], for which the Ki was 61.4 nM on hCA VII; 37200 nM at MgCA; 18.1 nM at hCA II; 504 nM on hCA I; 29.5 nM at CgNce103.

As for `NS(=O)(=O)c1ccc(N2CC(=O)N(Cc3ccccc3F)C2=O)cc1` [8l, 4-(3-(2-Fluorobenzyl)-2,4-dioxoimidazolidin-1-yl)benzenesulfonamide], the Ki on hCA VII is 12.7 nM; at MgCA, 81100 nM; at hCA II, 1.2 nM; at hCA I, 447 nM; at CgNce103 it was 48.8 nM.

`NS(=O)(=O)c1ccc(N2CC(=O)N(Cc3c(F)c(F)c(F)c(F)c3F)C2=O)cc1` [8n, 4-(2,4-Dioxo-3-((perfluorophenyl)methyl)imidazolidin-1-yl)benzenesulfonamide]: the Ki on hCA VII amounted to 16.9 nM; at MgCA, 34900 nM; at hCA II it was 91.2 nM; on hCA I, 415 nM; at CgNce103, 35.7 nM.

With `NS(=O)(=O)c1ccc(N2CC(=O)N(Cc3ccc([N+](=O)[O-])cc3)C2=O)cc1` [8h, 4-(3-(4-Nitrobenzyl)-2,4-dioxoimidazolidin-1-yl)benzenesulfonamide], the Ki was 30.3 nM at hCA VII; greater than 100000 nM at MgCA; 6.1 nM at hCA II; 657 nM on hCA I; 6.6 nM at CgNce103.

In the case of `NS(=O)(=O)c1ccc(N2CC(=O)N(Cc3ccc(C(F)(F)F)cc3)C2=O)cc1` [8i, 4-(2,4-Dioxo-3-(4-(trifluoromethyl)benzyl)imidazolidin-1-yl)benzenesulfonamide], the Ki at hCA VII was found to be 14.3 nM; at MgCA it was 59600 nM; at hCA II, 43.3 nM; on hCA I it was 601 nM; on CgNce103, 13.1 nM.

For the molecule `NS(=O)(=O)c1ccc(N2CC(=O)N(Cc3ccc(Cl)c(Cl)c3)C2=O)cc1` [8m, 4-(3-(3,4-Dichlorobenzyl)-2,4-dioxoimidazolidin-1-yl)benzenesulfonamide], the Ki is 133 nM on hCA VII; greater than 100000 nM at MgCA; 85.6 nM on hCA II; 688 nM on hCA I; 67.9 nM at CgNce103.

Take `C=CCN1C(=O)CN(c2ccc(S(N)(=O)=O)cc2)C1=O` [8c, 4-(3-Allyl-2,4-dioxoimidazolidin-1-yl)benzenesulfonamide]: the Ki is 19.5 nM on hCA VII; 66600 nM on MgCA; 32.6 nM on hCA II; 234 nM on hCA I; 54.2 nM at CgNce103.

Take `NS(=O)(=O)c1ccc(N2CC(=O)N(Cc3ccc(OC(F)(F)F)cc3)C2=O)cc1` [8j, 4-(2,4-Dioxo-3-(4-(trifluoromethoxy)benzyl)imidazolidin-1-yl)benzenesulfonamide]: the Ki was 22.4 nM on hCA VII; greater than 100000 nM on MgCA; 16.4 nM at hCA II; 425 nM on hCA I; 5.9 nM at CgNce103.

On to `Cc1ccc(CN2C(=O)CN(c3ccc(S(N)(=O)=O)cc3)C2=O)cc1` [8e, 4-(3-(4-Methylbenzyl)-2,4-dioxoimidazolidin-1-yl)benzenesulfonamide], for which the Ki stood at 3 nM at hCA VII; 38900 nM at MgCA; 32.7 nM at hCA II; 2930 nM on hCA I; 18.3 nM on CgNce103.
